Experimental data as given in patent publication US20060252807A1, “Novel ortho-terphenyl inhibitors of p38 kinase and methods of treating inflammatory disorders” (Kalypsys, Inc., priority 2005, published 2006).

Molecular target: T1, active p38 alpha enzyme (Upstate Biotechnology) (Homo sapiens, UniProt Q16539)
T1 construct: purchased Upstate Biotechnology
Test: p38α biochemical assay (ATP turnover, luminescent detection, Cambrex PKlight)
Settings: p38α biochemical assay, Table 1 Biological Activity
Summary of the method: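 Measures total ATP turnover by luminescence after human p38α phosphorylates full MapkapK2 protein. Final ATP is 1.4 uM, and incubation runs 2 hours at 30C. The buffer includes 100 mM MgCl2, 4 mM CaCl2 and 1 mg/ml BSA.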

T1 sequence (Q16539 whole entry): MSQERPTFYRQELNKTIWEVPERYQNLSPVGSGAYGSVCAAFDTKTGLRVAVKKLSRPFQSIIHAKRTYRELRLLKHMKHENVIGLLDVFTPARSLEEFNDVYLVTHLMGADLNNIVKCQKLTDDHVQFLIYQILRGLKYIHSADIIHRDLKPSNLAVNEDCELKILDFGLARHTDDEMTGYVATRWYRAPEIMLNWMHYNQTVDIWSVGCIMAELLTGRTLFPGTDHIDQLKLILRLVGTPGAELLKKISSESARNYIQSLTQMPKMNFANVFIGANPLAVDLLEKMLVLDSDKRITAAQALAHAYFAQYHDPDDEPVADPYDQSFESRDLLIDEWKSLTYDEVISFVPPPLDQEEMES

SMILES | IC50 [µM]
COC(=O)c1ccc(C(=O)NCc2nc(-c3ccc(F)cc3)c(-c3nc(C(=O)NC(C)C)cs3)o2)cc1 [Example 214] | > 1
CC(=O)Oc1cccc(C(=O)NCc2nc(-c3ccc(F)cc3)c(-c3nc(C(=O)NC(C)C)cs3)o2)c1 [Example 215] | > 1
CC(=O)Oc1ccccc1C(=O)NCc1nc(-c2ccc(F)cc2)c(-c2nc(C(=O)NC(C)C)cs2)o1 [Example 216] | > 1
CC(C)NC(=O)c1csc(-c2oc(CNC(=O)Cc3ccc4c(c3)OCO4)nc2-c2ccc(F)cc2)n1 [Example 217] | > 1
CCCOc1ccc(C(=O)NCc2nc(-c3ccc(F)cc3)c(-c3nc(C(=O)NC(C)C)cs3)o2)cc1 [Example 218] | > 1
CC(C)NC(=O)c1csc(-c2oc(CNC(=O)c3ccc(OC(C)C)cc3)nc2-c2ccc(F)cc2)n1 [Example 219] | > 1
Cc1cccc([N+](=O)[O-])c1C(=O)NCc1nc(-c2ccc(F)cc2)c(-c2nc(C(=O)NC(C)C)cs2)o1 [Example 220] | ≤ 1
Cc1cccc(C(=O)NCc2nc(-c3ccc(F)cc3)c(-c3nc(C(=O)NC(C)C)cs3)o2)c1[N+](=O)[O-] [Example 221] | ≤ 1
Cc1ccc([N+](=O)[O-])c(C(=O)NCc2nc(-c3ccc(F)cc3)c(-c3nc(C(=O)NC(C)C)cs3)o2)c1 [Example 222] | ≤ 1
Cc1c(C(=O)NCc2nc(-c3ccc(F)cc3)c(-c3nc(C(=O)NC(C)C)cs3)o2)cccc1[N+](=O)[O-] [Example 223] | > 1
COc1ccc(OC)c(C(=O)NCc2nc(-c3ccc(F)cc3)c(-c3nc(C(=O)NC(C)C)cs3)o2)c1 [Example 224] | > 1
COc1ccc(C(=O)NCc2nc(-c3ccc(F)cc3)c(-c3nc(C(=O)NC(C)C)cs3)o2)c(OC)c1 [Example 225] | > 1
COc1cccc(OC)c1C(=O)NCc1nc(-c2ccc(F)cc2)c(-c2nc(C(=O)NC(C)C)cs2)o1 [Example 226] | ≤ 1
COc1cc(OC)cc(C(=O)NCc2nc(-c3ccc(F)cc3)c(-c3nc(C(=O)NC(C)C)cs3)o2)c1 [Example 227] | > 1
COc1cccc(C(=O)NCc2nc(-c3ccc(F)cc3)c(-c3nc(C(=O)NC(C)C)cs3)o2)c1OC [Example 228] | > 1
Cc1ccc(SCC(=O)NCc2nc(-c3ccc(F)cc3)c(-c3nc(C(=O)NC(C)C)cs3)o2)cc1 [Example 229] | > 1
CC(C)NC(=O)c1csc(-c2oc(CNC(=O)/C=C/c3ccc(Cl)cc3)nc2-c2ccc(F)cc2)n1 [Example 230] | ≤ 1
CC(C)NC(=O)c1csc(-c2oc(CNC(=O)/C=C/c3ccccc3Cl)nc2-c2ccc(F)cc2)n1 [Example 231] | > 1
CC(C)NC(=O)c1csc(-c2oc(CNC(=O)c3ccc([N+](=O)[O-])c(O)c3)nc2-c2ccc(F)cc2)n1 [Example 232] | > 1
CC(C)NC(=O)c1csc(-c2oc(CNC(=O)c3cc(O)ccc3[N+](=O)[O-])nc2-c2ccc(F)cc2)n1 [Example 233] | ≤ 1
CC(C)NC(=O)c1csc(-c2oc(CNC(=O)c3cc([N+](=O)[O-])ccc3O)nc2-c2ccc(F)cc2)n1 [Example 234] | ≤ 1
CC(C)NC(=O)c1csc(-c2oc(CNC(=O)c3cc([N+](=O)[O-])ccc3F)nc2-c2ccc(F)cc2)n1 [Example 235] | > 1
CC(C)NC(=O)c1csc(-c2oc(CNC(=O)c3cc(F)ccc3[N+](=O)[O-])nc2-c2ccc(F)cc2)n1 [Example 236] | ≤ 1

SMILES | IC50 [µM]
CC(C)NC(=O)c1csc(-c2oc(CNC(=O)c3ccc(F)c([N+](=O)[O-])c3)nc2-c2ccc(F)cc2)n1 [Example 237] | ≤ 1
COc1ccc(Cl)cc1C(=O)NCc1nc(-c2ccc(F)cc2)c(-c2nc(C(=O)NC(C)C)cs2)o1 [Example 238] | > 1
COc1cc(Cl)ccc1C(=O)NCc1nc(-c2ccc(F)cc2)c(-c2nc(C(=O)NC(C)C)cs2)o1 [Example 239] | > 1
CC(C)NC(=O)c1csc(-c2oc(CNC(=O)Cc3ccc(O)c(Cl)c3)nc2-c2ccc(F)cc2)n1 [Example 240] | ≤ 1
COc1cc(C(=O)NCc2nc(-c3ccc(F)cc3)c(-c3nc(C(=O)NC(C)C)cs3)o2)cc(Cl)n1 [Example 241] | > 1
CC(C)NC(=O)c1csc(-c2oc(CNC(=O)c3ccc4cc(O)ccc4c3)nc2-c2ccc(F)cc2)n1 [Example 242] | ≤ 1
CC(C)NC(=O)c1csc(-c2oc(CNC(=O)c3c(O)ccc4ccccc34)nc2-c2ccc(F)cc2)n1 [Example 243] | > 1
CC(C)NC(=O)c1csc(-c2oc(CNC(=O)c3cc4ccccc4cc3O)nc2-c2ccc(F)cc2)n1 [Example 244] | > 1
CC(C)NC(=O)c1csc(-c2oc(CNC(=O)c3ccc4ccccc4c3O)nc2-c2ccc(F)cc2)n1 [Example 245] | > 1
CC(C)NC(=O)c1csc(-c2oc(CNC(=O)c3ccc4cccc(O)c4n3)nc2-c2ccc(F)cc2)n1 [Example 246] | ≤ 1
CC(C)NC(=O)c1csc(-c2oc(CNC(=O)C(C)NC(=O)OC(C)(C)C)nc2-c2ccc(F)cc2)n1 (stereo not shown) [Example 247] | > 1
CC(C)NC(=O)c1csc(-c2oc(CNC(=O)C(C)NC(=O)OC(C)(C)C)nc2-c2ccc(F)cc2)n1 (stereo not shown) [Example 248] | > 1
CC(C)NC(=O)c1csc(-c2oc(CNC(=O)c3ccccc3C(F)(F)F)nc2-c2ccc(F)cc2)n1 [Example 249] | ≤ 1
CC(C)NC(=O)c1csc(-c2oc(CNC(=O)CCc3nc4ccccc4[nH]3)nc2-c2ccc(F)cc2)n1 [Example 250] | ≤ 1
CC(C)NC(=O)c1csc(-c2oc(CNC(=O)c3cccc(Cl)c3Cl)nc2-c2ccc(F)cc2)n1 [Example 251] | ≤ 1
CC(C)NC(=O)c1csc(-c2oc(CNC(=O)c3ccc(Cl)cc3Cl)nc2-c2ccc(F)cc2)n1 [Example 252] | ≤ 1
CC(C)NC(=O)c1csc(-c2oc(CNC(=O)c3cc(Cl)ccc3Cl)nc2-c2ccc(F)cc2)n1 [Example 253] | ≤ 1
CC(C)NC(=O)c1csc(-c2oc(CNC(=O)c3cc(F)c(F)c(O)c3F)nc2-c2ccc(F)cc2)n1 [Example 254] | > 1
CC(C)NC(=O)c1csc(-c2oc(CNC(=O)/C=C/c3ccc4c(c3)OCO4)nc2-c2ccc(F)cc2)n1 [Example 255] | > 1
Cc1ccc(C(=O)CCC(=O)NCc2nc(-c3ccc(F)cc3)c(-c3nc(C(=O)NC(C)C)cs3)o2)cc1 [Example 256] | > 1
CCCCCc1ccc(C(=O)NCc2nc(-c3ccc(F)cc3)c(-c3nc(C(=O)NC(C)C)cs3)o2)cc1 [Example 257] | > 1
CC(C)NC(=O)c1csc(-c2oc(CNC(=O)c3cc(F)c(F)cc3Cl)nc2-c2ccc(F)cc2)n1 [Example 258] | ≤ 1
CC(C)NC(=O)c1csc(-c2oc(CNC(=O)c3cc(F)c(Cl)cc3F)nc2-c2ccc(F)cc2)n1 [Example 259] | > 1

SMILES | IC50 [µM]
CCN(CC)c1ccc(C(=O)NCc2nc(-c3ccc(F)cc3)c(-c3nc(C(=O)NC(C)C)cs3)o2)cc1 [Example 260] | ≤ 1
COc1cc(/C=C/C(=O)NCc2nc(-c3ccc(F)cc3)c(-c3nc(C(=O)NC(C)C)cs3)o2)ccc1O [Example 261] | ≤ 1
COc1ccc(/C=C/C(=O)NCc2nc(-c3ccc(F)cc3)c(-c3nc(C(=O)NC(C)C)cs3)o2)cc1O [Example 262] | ≤ 1
CCCCOc1ccc(C(=O)NCc2nc(-c3ccc(F)cc3)c(-c3nc(C(=O)NC(C)C)cs3)o2)cc1 [Example 263] | > 1
CC(C)NC(=O)c1csc(-c2oc(CNC(=O)c3cc4cc(Cl)ccc4o3)nc2-c2ccc(F)cc2)n1 [Example 264] | ≤ 1
COc1ccc([N+](=O)[O-])c(C(=O)NCc2nc(-c3ccc(F)cc3)c(-c3nc(C(=O)NC(C)C)cs3)o2)c1 [Example 265] | ≤ 1
COc1cc(C(=O)NCc2nc(-c3ccc(F)cc3)c(-c3nc(C(=O)NC(C)C)cs3)o2)cc(OC)c1O [Example 266] | ≤ 1
CC(C)NC(=O)c1csc(-c2oc(CNC(=O)c3ccccc3-c3ccccc3)nc2-c2ccc(F)cc2)n1 [Example 267] | > 1
CC(C)NC(=O)c1csc(-c2oc(CNC(=O)c3cccc(Br)c3)nc2-c2ccc(F)cc2)n1 [Example 268] | > 1
CC(C)NC(=O)c1csc(-c2oc(CNC(=O)c3ccc(Br)cc3)nc2-c2ccc(F)cc2)n1 [Example 269] | > 1
CC(C)NC(=O)c1csc(-c2oc(CNC(=O)c3cccc(Cl)c3[N+](=O)[O-])nc2-c2ccc(F)cc2)n1 [Example 270] | ≤ 1
CC(C)NC(=O)c1csc(-c2oc(CNC(=O)c3cc([N+](=O)[O-])ccc3Cl)nc2-c2ccc(F)cc2)n1 [Example 271] | ≤ 1
CC(C)NC(=O)c1csc(-c2oc(CNC(=O)c3ccc([N+](=O)[O-])cc3Cl)nc2-c2ccc(F)cc2)n1 [Example 272] | ≤ 1
CC(C)NC(=O)c1csc(-c2oc(CNC(=O)c3ccc(Cl)cc3[N+](=O)[O-])nc2-c2ccc(F)cc2)n1 [Example 273] | ≤ 1
CC(C)NC(=O)c1csc(-c2oc(CNC(=O)c3ccc(Cl)c([N+](=O)[O-])c3)nc2-c2ccc(F)cc2)n1 [Example 274] | > 1
CC(C)NC(=O)c1csc(-c2oc(CNC(=O)c3cc(Cl)ccc3[N+](=O)[O-])nc2-c2ccc(F)cc2)n1 [Example 275] | ≤ 1
CC(C)NC(=O)c1csc(-c2oc(CNC(=O)c3cccc(Br)n3)nc2-c2ccc(F)cc2)n1 [Example 276] | > 1
CC(C)NC(=O)c1csc(-c2oc(CNC(=O)c3cncc(Br)c3)nc2-c2ccc(F)cc2)n1 [Example 277] | ≤ 1
CC(C)NC(=O)c1csc(-c2oc(CNC(=O)c3cc(F)c(F)cc3[N+](=O)[O-])nc2-c2ccc(F)cc2)n1 [Example 278] | ≤ 1
CC(C)NC(=O)c1csc(-c2oc(CNC(=O)Cc3ccc(C(F)(F)F)cc3)nc2-c2ccc(F)cc2)n1 [Example 279] | > 1
CC(C)Cc1ccc(C(C)C(=O)NCc2nc(-c3ccc(F)cc3)c(-c3nc(C(=O)NC(C)C)cs3)o2)cc1 (stereo not shown) [Example 280] | > 1
